This note sets out measurements from US8258099B2, “Pin1-modulating compounds and methods of use thereof” (Max-Planck-Gesellschaft zur Foerderung der Wissenschaften …, priority 2004, dated 2012).

As a reminder, the IC50 is the midpoint of a concentration-inhibition curve.

Where two headings read alike, the source gives them in different places. Square brackets hold non-standard residues; d marks the D form. Peptide text beside a SMILES is read from it. * marks the point of attachment. Biotin = O=C1N[C@H]2[C@H](CS[C@H]2CCCCC(=O)*)N1; pT = C[C@@H](OP(=O)(O)O)[C@H](N)C(=O)O; 2Nal = N[C@@H](Cc1ccc2ccccc2c1)C(=O)O; Bta = N[C@@H](Cc1csc2ccccc12)C(=O)O; Pip = O=C(O)[C@@H]1CCCCN1

A short description of data set [1]: Stability against cellular phosphatases and proteases in HeLa cell lysate. It counts as in vitro ADME. The settings on record: cytoplasmic extracts from HeLa cells, prolonged incubation, MALDI-TOF. The procedure: FIG. 4 depicts the stability of peptide 17 against cellular phosphatases and proteases. Peptide 17 was incubated for 3 hours in HeLa cell lysate in the absence of phosphatase and protease inhibitors. The mixture was then analyzed by capillary electrophoresis (short dashed line). As controls, the untreated peptide 17 (solid line) and its nonphosphorylated derivative (dotted line) were used. The temperature of the capillary thermostating system was kept at 16° C. Separation buffer was 50 mM sodium phosphate, pH 7.0. Signals were detected at 220 nm.
Peptide 17 was incubated with HeLa cell lysate for 3 h and analyzed with capillary electrophoresis using UV detection at 220 nm on a P/ACE MDQ (Beckman Coulter, Palo Alto, Calif.) system. Fused-silica capillaries (Polymicro Technologies) of 40 cm length at an operation voltage of 20 kV were used. As references, untreated peptide 17 and its nonphosphorylated derivative were used. The samples were hydrodynamically injected with 3.45 kPa for 10 s. 50 mM sodium phosphate buffer (pH 7.0) was used as separation buffer. The system temperature was kept at 16° C.
The stability of peptides 15 and 17 in cytoplasmic extracts from HeLa cells was investigated using MALDI-TOF mass spectrometry and capillary electrophoresis, respectively. In the cytosolic incubation mixture, streptavidin sepharose beads served to isolate peptide 15 fragments after prolonged incubation. […] Therefore, phosphopeptides are useless for evaluating Pin1 functions in vivo unless dephosphorylation can be avoided.

Data set [2] concerns the target T1, GST-hPin1, GST-hPin1 PPIase and GST-hPin1 WW domain (Homo sapiens, UniProt Q13526).
T1 construct: made in house
The experiment in a line: Far western blot related analysis, hPin1 and its single domains. Format: binding. The settings on record: 1 μM peptide 15, 50 μM nonphosphorylated derivative. The procedure:
(§1) FIGS. 2A-B depict western blot experiments analyzing the binding of peptide 15 to Pin1. FIG. 2A depicts the binding preferences of the PPIase and WW domain of hPin1 regarding peptide 15. In far western blot related experiments, increasing amounts (from left to right: 1, 5, 10, 52.5, 105 pmol) of GST, GST-hPin1 or its single GST-hPin1 PPIase and GST-hPin1 WW domain were spotted onto nitrocellulose membranes followed by a blocking procedure. The membranes were then incubated with a 1 μM solution of peptide 15 or 50 μM solution of its nonphosphorylated derivative (control). Signals were detected after incubation of the nitrocellulose membranes with horseradish peroxidase-conjugated streptavidin followed by a chemiluminescent reaction using the SuperSignal® substrate. FIG. 2B depicts an analysis of the binding of peptide 15 towards different GST-hPin1 variants. […] Residual PPIase activities of GST-hPin1 and its variants were determined according to Zhou et al., 2000 and/or Yaffe et al., 1997. The PPIase activity of the GST-hPin1 variant Ser16Glu was measured in the protease free PPIase assay.
GST-hPin1 variants, GST-hPin1 PPIase and GST-hPin1 WW domain were prepared as described previously (Ranganathan et al., 1997, Zhou et al., 2000). […] Specific bound peptide 15 was detected by a chemiluminescent reaction using the SuperSignal® substrate (Pierce).

For data set [3], the target named is T2, GST-hPin1 variant Ser16Glu (Homo sapiens, UniProt Q13526, S16E).
T2 construct: made in house
The experiment in a line: Far western blot related analysis, GST-hPin1 variants. Format: binding. The method, then:
as §1, with “variants. The indicated amounts of peptide 15 were spotted onto nitrocellulose membranes followed by a blocking procedure and incubation with the respective GST-hPin1 variant.” for “variants.”, “assay. […]” for “assay.”

A further data set addresses T3, hPin1 (Homo sapiens, UniProt Q13526).
T3 construct: The protease free assay ensures reliable measurement of IC50 values for the full-length hPin1
The experiment in a line: Protease free PPIase assay, hPin1. Format: biochemical. The method, then:
Protein concentrations were determined using the extinction coefficient ε280=21030 M^−1 cm^−1 for hPin1, ε280=6979 M^−1 cm^−1 for the hPin1 PPIase domain, ε280=21030 M^−1 cm^−1 for XlPin1, ε280=8250 M^−1 cm^−1 for hPar14 and ε280=8250 M^−1 cm^−1 for hCyp18. Extinction coefficients were calculated using the program ProtParam Tool at ExPASy (SIB, Switzerland). All measurements were done at 10° C. in 35 mM Hepes buffer (pH 7.8).
The determination of the kinetic constants of the cis/trans isomerization within the protease-free system was performed using fluorescence based measurements (Garcia-Echeverria et al., 1993, Zhang et al., 2002) on a Hitachi F-3010 fluorescence spectrophotometer with H-Abz-Ala-Glu-Pro-Phe-NH-Np (SEQ ID NO: 2) as substrate. The substrate stock solution was 12 mM in anhydrous trifluoroethanol/0.55 M LiCl. Measurements were initiated by addition of the substrate (final concentration 10 μM) to a pre-incubated (15 min) mixture of 8.8 nM hPin1 or 7.1 nM XlPin1 and respective inhibitory peptide of desired concentrations. The excitation wavelength was 320 nm (spectral bandwidth 3 nm) and emission was detected at 420 nm (spectral bandwidth 10 nm).
Data analysis was performed by single-exponential nonlinear regression using the SigmaPlot Scientific Graphing System Version 5.00 (Jandel Corp.). The apparent first order rate constant kobs was computed by nonlinear regression of the progress curve obtained for the respective measurement. The rate constant k0 was determined in the absence of Pin1. The first order rate constants kenz was calculated from the equation kenz=kobs−k0. IC50 and Ki values were determined by fitting the first order rate constants kenz against the concentration of the inhibitory peptide by nonlinear regression according to Schutkowski et al., 1995 or a model for tight binding inhibitors (Morrison, 1969).
The protease free assay ensures reliable measurement of IC50 values for the full-length hPin1.

As for `CC(=O)N[C@@H](CCCCNC(=O)CCCC[C@@H]1SC[C@@H]2NC(=O)N[C@@H]21)C(=O)N[C@@H](C)C(=O)N[C@@H](C)C(=O)N[C@@H](Cc1csc2ccccc12)C(=O)N[C@H](C(=O)N1CCCC[C@H]1C(=O)N[C@@H](Cc1ccc2ccccc2c1)C(=O)N[C@@H](CCC(N)=O)C(N)=O)[C@@H](C)OP(=O)(O)O` [Peptide 15, Ac-Lys(N^ε-biotinoyl)-Ala-Ala-Bth-Thr(PO3H2)Pip-Nal-Gln-NH2] (Ac-K(Biotin)AA[Bta][pT][Pip][2Nal]Q-NH2), in data set [1], the “phosphothreonine residue in cytosol” value is given as “completely dephosphorylated” and the “sequence integrity in cytosol” value is recorded as “sequence integrity was maintained”. Besides, the “binding to GST-hPin1 and its PPIase and WW domains” value in data set [2] is given as “binds only to the PPIase domain”. The “effect of Ser16Glu substitution in hPin1 on affinity” value in data set [3] is given as “virtually no effect”. Further, on hPin1 (blockade of PPIase activity of full-length hPin1, protease free assay, 10° C., read-out: IC50), the half-maximal inhibitory concentration (IC50) was determined as 0.21 µM. In addition, the IC50 on hPin1 (protease free assay, full-length hPin1, read-out: lowest IC50 value) is roughly 0.2 µM.
